Series [1] relates to DC maturation caused by LL37 (IGF-1R).
The conditions of series [2]: topical oil/water lotion 50 μg/ml, 2× per day, 28 days. The protocol:
Self-reported “Severity Scores” on a scale of 1-10 (with 10 being most severe) were recorded in a daily symptom report form to record the symptom score and compliance. The change from baseline is plotted for the day 0, 7, 14, 21, 28 and 35 (one week “off” treatment) symptom scores.
Topical administration of all-D-TTNYT (SEQ ID NO: 1) was formulated in an oil/water lotion consisting of deionized water, caprylic/capric triglyceride, polyglyceryl-6-stearate, polyglyceryl-6-behenate, cetearyl alcohol, and glyceryl stearate.

The test system of series [3] is TLR4-mediated maturation of dendritic cells. The protocol:
To determine whether all-D-TTNYT (SEQ ID NO: 1) blocks maturation of dendritic cells human PBMC's were isolated from peripheral blood by Ficoll-Paque centrifugation and then monocytes were isolated by negative selection using immunobeads (Miltenyi). Human monocyte derived immature dendritic cells (iDCs) were then generated by treating monocytes with GM-CSF/IL4 for 5 days.
The iDCs were treated with all-D-TTNYT (SEQ ID NO: 1) at 10^−12 M for 30 min. After 30 min LPS (100 ng/ml) was added to the cells and cells were analyzed after 48 hrs for surface maturation markers using fluorescent labeled antibodies by flow cytometry. […] The surface markers control T cell activation and localization in tissues. DCs, like microglia, are derived from differentiated monocytes and serve as the innate and adaptive sentinel cells of the skin and brain, respectively. Blockade of DC or microglial activation would suppress inflammation.

Series [4] deals with rodent spinal cord tissue. The note with it: Rat, Padi, 2012; cited from earlier work.
Another series relates to response to bradykinin. Conditions: amounts up to 50,000 times the standard challenge of bradykinin; cited from earlier work.
The conditions of series [5]: route of dosing not described; U.S. Pat. No. 5,798,335; cited from earlier work.
The conditions of series [6]: aqueous solutions; U.S. Pat. No. 7,390,788; cited from earlier work.
In series [7] the test system is normal human epidermal keratinocytes. The note with it: Hu, Paoletti, 2013; cited from earlier work.
Series [8] has as its system plasma inflammatory cytokines. Conditions: Ruff, cited from earlier work.
[9] abbreviates: Hu dendritic cells, peptide 10^-12 M 30 min, then LPS 100 ng/ml, 48 hrs, unpublished.
The mark [10] stands for this setting: Hu, DAPTA administered for 7 weeks.

Values joined by “and” are separate entries in the source; they are usually repeats but may differ in a detail not shown here. Equal entries are not always repeated.

The values below come from patent US20180344798A1, “TOPICALLY ACTIVE PEPTIDES FOR TREATING COSMETIC AND DERMATOLOGICAL CONDITIONS” (priority 2017, published 2018).

For all-D-TTNYT, in series [1], the “effect on DC maturation of the four markers caused by LL37” value was “no effect”. In [2] (five subjects, scale 1-10), the “self-reported Severity Scores in dermatocosmetic conditions” value was “improved”. The “appearance of rosacea, atopic dermatitis, and psoriasis” value in series [2] (subject reports) is “improvements in the appearance of rosacea, atopic dermatitis, and psoriasis”. For the same substance, in series [3] (setting [9]), the CD58 change result is on record as “decrease”, the CD86 change result is on record as “decrease”, the DR change entry is recorded as “decrease” and the ICAM1 change result is on record as “decrease”. The “expression of maturation markers CD86, HLA-DR, CD58 and ICAM1” value in series [3] (iDCs pre-treated with peptide, then LPS, flow cytometry) was “reduces expression of all the maturation markers”. Moreover, in series [4], the IL-1β change result is recorded as “decrease” and the IL-6 change result was “decrease”.

all-D-bradykinin: in the series with response to bradykinin, the “inhibition of the response to bradykinin or bradykinin-like effect” value is on record as “neither any inhibition of the response to bradykinin, or any bradykinin-like effect”.

Dalal-peptide T-amide [DAPTA]: the “improvement of eczema/dermatitis in dogs” value in series [5] is “Improvement in two dogs with dermatitis, mild improvement in five cases of erythema, and no improvement in ten cases”. Besides, in series [6], the “aggregation and loss of potency upon storage” value is “high propensity for DAPTA to aggregate and lose potency”. Further, in series [7], the ICAM1 change entry is reported as “decrease”, the IL-6 change entry is reported as “decrease”, the IL-8 change entry was “decrease” and the IL-23 change entry is on record as “decrease”. Moreover, the pSTAT3 change entry in series [7] was “decrease”. In series [8] (setting [10]), the IL-1 change result is recorded as “decrease”, the IL-6 change entry was “decrease”, the IL-8 change result is listed as “decrease” and the TNFα change result was “decrease”. Further, the “anti-inflammatory cytokine IL-10 (M2-type) change” value in [8] (human subjects, DAPTA for 7 weeks) is given as “increased”.

Turning to all-D-TTNYT-NH2, the “Timed Walk, Post” value (after topical lotion 50 μg/ml, 2× per day to feet, 28 days, measured fixed distance) was 24 s. The “Pain Score, Post” value (after topical lotion 50 μg/ml, 2× per day to feet, 28 days, scale 1-10, per subject) is listed as 3. Also, the “Timed Walk, Pre” value (before treatment (baseline), measured fixed distance) was 48 s. In addition, the “Pain Score, Pre” value (before treatment (baseline), self-reported scale 1-10, per subject) was 7 and 6. Besides, where the note is “two subjects with diabetic neuropathy symptoms, topical lotion 50 μg/ml, 2× per day”, the “pain sensitivity on self-reported Severity Scores” value was “Reduced pain sensitivity”.
